Data set [1] is described as follows: Aqueous solubility study in Britton-Robinson's buffer (HPLC-UV). It counts as physicochemical. To be noted: ambient temperature overnight; for solubility: thermodynamic from solid. How it is done: The test compound (2.5 mg of solid; n=1) was weighed in a clear glass vial and Britton-Robinson's buffer (0.5 mL) was added (pH 2.01, pH 3.06, pH 4.06, pH 5.08, pH 5.99, pH 6.98, and pH 8.16). The solution was agitated at ambient temperature overnight using a vial roller system, and then filtered (0.45 μm pore size; without pre-saturation). Two aliquots (50 μL) were sampled from the filtrate and diluted with one volume of 0.1 N hydrochloric acid and methanol (1:1 v/v) before analysis by HPLC-UV. A standard was prepared in DMSO at 10 mg/mL (n=1) which was then diluted 10-fold in 0.1 N hydrochloric acid and methanol (1:1 v/v) to give a 1 mg/mL solution. The concentration of test compound in the filtrate was quantified relative to the concentration standard.
Analysis was done using a gradient HPLC-UV system with a total cycle time of 6 min. The UV detection between 220 nm and 300 nm was done using a photodiode array detector.
The values given in the table above are for crystalline YF476 and (TR2-A) and amorphous (TR1).

Data set [2] in a line: Pharmacokinetics in healthy subjects, single oral dose, API in capsule. To be noted: human, in vivo; after single oral doses of (TR2-A); analyte TR2-A; read-out: AUC0-24 h of plasma concentrations of (TR2-A). The method, then:
In an initial study, healthy volunteers took a single oral dose of 100 mg (TR2) as an active pharmaceutical ingredient (API) in a capsule. Plasma concentrations were measured.
In further clinical studies, healthy volunteers (n=8) took single oral doses of 5, 15, 50 and 100 mg (TR2) as an active pharmaceutical ingredient (API) in a capsule. (Capsule formulation TR2 powder (API) in a hard gelatin capsule, no excipients, no processing). Plasma concentrations were measured.
Healthy volunteers (n=8) took single oral doses of 5, 15, 25 and 50 mg (TR2-A) as API in a capsule (TR2-A (crystalline) in hard gelatin capsule with no excipient, no processing of the API). Plasma concentrations of (TR2) and (TR2-A) were measured. The area under the curve of plasma concentrations of (TR2) after a single oral dose of 50 mg of (TR2-A) API (AUC0-24 h=212.5) was about the same as that observed for a similar formulation of a single oral dose of (TR2) 100 mg (AUC0-24 h=241.5).

For the next data set, the target named is T1, rat brain CCK2 receptors (Rattus norvegicus, UniProt P30553).
T1 construct: host or cells: rat brain
T1 sequence (P30553 1-452): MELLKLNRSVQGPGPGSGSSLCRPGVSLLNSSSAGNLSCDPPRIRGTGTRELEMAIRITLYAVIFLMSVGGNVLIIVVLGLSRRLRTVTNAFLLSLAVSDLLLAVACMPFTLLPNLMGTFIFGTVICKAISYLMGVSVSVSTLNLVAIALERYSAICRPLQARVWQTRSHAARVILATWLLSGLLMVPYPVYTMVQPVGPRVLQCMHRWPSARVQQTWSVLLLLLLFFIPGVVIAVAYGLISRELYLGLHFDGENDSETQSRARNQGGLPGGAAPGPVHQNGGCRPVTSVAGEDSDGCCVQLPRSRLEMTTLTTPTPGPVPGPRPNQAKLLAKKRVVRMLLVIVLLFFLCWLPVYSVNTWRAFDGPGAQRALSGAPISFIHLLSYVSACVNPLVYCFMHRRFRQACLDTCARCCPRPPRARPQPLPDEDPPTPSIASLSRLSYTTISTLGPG
To be noted: cited from earlier work.

The subject of data set [3] is AGSGR cells (gastric adenocarcinoma cell line transfected with human gastrin/CCK2 receptor gene). The data set can be described thus: Sulphorhodamine-B (SRB) proliferation assay, G17-treated cells. The data set is classed as cell-based. To be noted: compound 100 nM, G17 10 nM. The method, then:
The potency of (TR2) and (TR3) was tested in a sulphorhodamine-B (SRB) proliferation assay in a human gastric adenocarcinoma cell line stably transfected with the human gastrin/CCK2 receptor gene (AGSGR). SRB is a fluorescent dye that binds to proteins, so cells with a high rate of protein synthesis (proliferative cells) will show high levels of fluorescence in the SRB assay. […] (TR2) and (TR3) were compared with the positive controls YF476 and YM022.

The target in a further data set is T2, CCK2 (human) (Homo sapiens, UniProt P32239).
T2 sequence (P32239 1-447): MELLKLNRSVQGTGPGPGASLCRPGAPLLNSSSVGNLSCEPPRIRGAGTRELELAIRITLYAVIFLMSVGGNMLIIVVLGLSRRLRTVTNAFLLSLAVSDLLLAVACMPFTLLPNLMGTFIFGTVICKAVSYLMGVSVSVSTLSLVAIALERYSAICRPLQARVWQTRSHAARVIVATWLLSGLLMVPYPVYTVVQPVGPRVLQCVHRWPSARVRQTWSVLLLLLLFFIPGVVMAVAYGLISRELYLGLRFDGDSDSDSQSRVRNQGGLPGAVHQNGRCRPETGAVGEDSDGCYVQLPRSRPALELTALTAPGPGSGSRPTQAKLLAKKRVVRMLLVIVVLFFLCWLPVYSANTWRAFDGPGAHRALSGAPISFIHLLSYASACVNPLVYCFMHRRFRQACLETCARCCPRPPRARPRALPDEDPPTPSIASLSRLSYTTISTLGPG
Briefly: CCK2 receptor functional assay (antagonist effect, cAMP, HTRF). It counts as cell-based. On the set-up: expressed in transfected cells; host or cells: CHO cells. An excerpt: (TR2) and (TR3) were compared with YF476 and YM022 in CCK1 and CCK2 receptor functional assays with the following assay criteria.
The potency of the antagonists is expressed as IC50, the concentration of antagonist that causes a half-maximum inhibition of the control agonist response. The affinity of the antagonist for the receptor is expressed as KB, the concentration of antagonist, which would occupy 50% of the receptors at equilibrium.
Background: Time-resolved FRET reads energy transfer from a long-lived donor to a nearby acceptor.

For data set [4] the following is noted: cited from earlier work.
[5] abbreviates: pH 5.08, Britton-Robinson's buffer.
[6] abbreviates: pH 2.01, Britton-Robinson's buffer.
The mark [7] stands for this setting: pH 3.06, Britton-Robinson's buffer.
Where [8] appears, read: pH 4.06, Britton-Robinson's buffer.
The mark [9] stands for this setting: pH 5.99, Britton-Robinson's buffer.
[10] abbreviates: pH 6.98, Britton-Robinson's buffer.
Where [11] appears, read: pH 8.16, Britton-Robinson's buffer.

In brackets after ≈: the same amount, converted by molar mass. Like-named read-outs stand apart in the source and are kept apart here. Bounds are passed on as bounds.

The source of these data is US10906884B2, “Benzodiazepine derivatives as CCK2/gastrin receptor antagonists” (Trio Medicines Ltd, priority 2014, dated 2021).

As usually defined, the solubility is the concentration that dissolves in the medium under given conditions. In general, Aqueous solubility refers to the concentration that dissolves in the medium under given conditions. For orientation: IC50 means the concentration that inhibits the measured activity by half. Broadly, the Kb is the equilibrium dissociation constant of an antagonist, usually derived from a functional assay. A low value points to a more potent antagonist.

Turning to `CNc1cccc(NC(=O)NC2N=C(c3ccccn3)c3ccccc3N(CC(=O)C(C)(C)CO)C2=O)c1` (racemic) [TR1, 1-[1-(4-Hydroxy-3,3-dimethyl-2-oxo-butyl)-2-oxo-5-pyridin-2-yl-2,3-dihydro-1H-1,4-benzodiazepin-3-yl]-3-(3-methylamino-phenyl)-urea], the solubility in data set [1] (aqueous buffer, pH 2.01, Britton-Robinson's buffer) is 5000 µg/mL (≈ 9720 µM); in data set [1] (aqueous buffer, pH 3.06, Britton-Robinson's buffer), 645 µg/mL (≈ 1250 µM); in data set [1] (aqueous buffer, pH 4.06, Britton-Robinson's buffer), 58.2 µg/mL (≈ 113 µM); in data set [1] (aqueous buffer, pH 5.08, Britton-Robinson's buffer), 9.8 µg/mL (≈ 19 µM); in data set [1] (aqueous buffer, pH 5.99, Britton-Robinson's buffer), 11.6 µg/mL (≈ 22.5 µM); in data set [1] (aqueous buffer, pH 6.98, Britton-Robinson's buffer) it was 5.84 µg/mL (≈ 11.3 µM). Besides, in data set [1] (aqueous buffer, pH 8.16, Britton-Robinson's buffer), the solubility is 7.81 µg/mL (≈ 15.2 µM).

For `CNc1cccc(NC(=O)N[C@@H]2N=C(c3ccccn3)c3ccccc3N(CC(=O)C(C)(C)COC(C)=O)C2=O)c1` [TR2-A, (R)-1-[1-(4-Acetoxy-3,3-dimethyl-2-oxo-butyl)-2-oxo-5-pyridin-2-yl-2,3-dihydro-1H-benzo[e][1,4]diazepin-3-yl]-3-(3-methylamino-phenyl)-urea], in data set [2], the AUC(0-t) is less than 10 ng·h/mL. In addition, the solubility was 4190 µg/mL (≈ 7530 µM) in data set [1] (pH 2.01, aqueous buffer, pH 2.01, Britton-Robinson's buffer); 730 µg/mL (≈ 1310 µM) in data set [1] (pH 3.06, aqueous buffer, pH 3.06, Britton-Robinson's buffer); 218 µg/mL (≈ 392 µM) in data set [1] (pH 4.06, aqueous buffer, pH 4.06, Britton-Robinson's buffer); 47.2 µg/mL (≈ 84.8 µM) in data set [1] (pH 5.99, aqueous buffer, pH 5.99, Britton-Robinson's buffer); 51 µg/mL (≈ 91.6 µM) in data set [1] (pH 6.98, aqueous buffer, pH 6.98, Britton-Robinson's buffer); 45.4 µg/mL (≈ 81.6 µM) in data set [1] (pH 8.16, aqueous buffer, pH 8.16, Britton-Robinson's buffer). Moreover, in data set [1] (setting [5]), the Aqueous solubility stood at 56 µg/mL.

Consider `CNc1cccc(NC(=O)N[C@@H]2N=C(c3ccccn3)c3ccccc3N(CC(=O)C(C)(C)COC(C)=O)C2=O)c1` [TR2-A crystalline], for which the Aqueous solubility in data set [1] (setting [6]) turned out to be 4190 µg/mL; in data set [1] (setting [7]) it was 730 µg/mL; in data set [1] (setting [8]), 218 µg/mL; in data set [1] (setting [5]), 56 µg/mL; in data set [1] (setting [9]), 47.2 µg/mL; in data set [1] (setting [10]), 51 µg/mL. In addition, the Aqueous solubility in data set [1] (setting [11]) came to 45.4 µg/mL.

In the case of `Cc1cccc(NC(=O)N[C@@H]2N=C(c3ccccc3)c3ccccc3N(CC(=O)c3ccccc3C)C2=O)c1` [YM022, reference compound], on rat brain CCK2 receptors, the “Affinity at rat brain CCK2 receptors” value is recorded as “subnanomolar” and the “Affinity at rat brain CCK2 receptors relative to rat pancreatic CCK1 receptors” value is “more than two orders of magnitude higher”. Also, in data set [3], the “Inhibition of the anti-proliferative effects of G17” value is recorded as “completely inhibited”. At CCK2 (human), this compound had an IC50 of 0.55 nM and an antagonist dissociation constant (Kb) of 0.68 nM. The Aqueous solubility result in data set [4] is “low”.

On to `CNc1cccc(NC(=O)N[C@@H]2N=C(c3ccccn3)c3ccccc3N(CC(=O)C(C)(C)COC(C)=O)C2=O)c1` [TR2-A amorphous], for which the Aqueous solubility in data set [1] (setting [6]) came out at 5000 µg/mL; in data set [1] (setting [7]), 683 µg/mL; in data set [1] (setting [8]), 282 µg/mL; in data set [1] (setting [5]) it was 128 µg/mL; in data set [1] (setting [9]) it was 53.4 µg/mL; in data set [1] (setting [10]), 43 µg/mL. Moreover, the Aqueous solubility in data set [1] (setting [11]) was 40.2 µg/mL.
